Data published in ChEMBL document CHEMBL5303573, “Mapping human microbiome drug metabolism by gut bacteria and their genes” (Nature, 2019).

Legend:
Lipase = biological target: T1, Lipase (Bacteroides thetaiotaomicron, UniProt Q8A3J3); test: (§1) The drug is tested on Bacteroides thetaiotaomicron strain: VPI-5482 for biotransformation. The drug concentrations were measured before and after a 12-h incubation by liquid-chromatography-coupled mass spectrometry (LC–MS); format: ADME; design: dose 2 uM; details: 2 µM
T1 sequence (Q8A3J3 whole entry): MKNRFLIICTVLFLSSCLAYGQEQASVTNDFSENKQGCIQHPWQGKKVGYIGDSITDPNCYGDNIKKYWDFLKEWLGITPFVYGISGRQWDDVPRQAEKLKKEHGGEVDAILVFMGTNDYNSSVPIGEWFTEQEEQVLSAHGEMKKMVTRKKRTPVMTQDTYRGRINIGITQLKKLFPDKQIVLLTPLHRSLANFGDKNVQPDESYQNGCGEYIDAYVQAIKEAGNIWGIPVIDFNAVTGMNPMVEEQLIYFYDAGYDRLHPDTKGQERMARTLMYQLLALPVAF

[1] = biological target: T2, Lipolytic enzyme, G-D-S-L family (Bacteroides thetaiotaomicron, UniProt Q8A0C5); test: as §1; format: ADME; design: dose 2 uM; details: 2 µM
T2 sequence (Q8A0C5 whole entry): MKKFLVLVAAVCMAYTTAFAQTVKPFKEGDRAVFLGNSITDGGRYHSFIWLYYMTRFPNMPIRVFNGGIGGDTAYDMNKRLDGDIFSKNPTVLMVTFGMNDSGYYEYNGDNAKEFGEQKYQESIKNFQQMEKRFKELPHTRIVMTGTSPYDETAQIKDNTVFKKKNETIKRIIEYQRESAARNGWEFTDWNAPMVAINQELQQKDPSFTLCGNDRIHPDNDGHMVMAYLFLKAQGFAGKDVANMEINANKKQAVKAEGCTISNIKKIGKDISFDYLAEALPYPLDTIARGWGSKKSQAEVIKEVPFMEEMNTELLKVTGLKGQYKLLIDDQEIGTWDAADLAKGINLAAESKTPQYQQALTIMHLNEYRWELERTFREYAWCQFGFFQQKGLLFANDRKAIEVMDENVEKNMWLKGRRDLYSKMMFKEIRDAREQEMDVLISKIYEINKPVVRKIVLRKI

Diguanylate cyclase = biological target: T3, Diguanylate cyclase (Collinsella aerofaciens, UniProt A4EB91); test: (§2) The drug is tested on Collinsella aerofaciens strain: ATCC25986 for biotransformation. The drug concentrations were measured before and after a 12-h incubation by liquid-chromatography-coupled mass spectrometry (LC–MS); format: ADME; design: dose 2 uM; details: 2 µM
T3 sequence (A4EB91 whole entry): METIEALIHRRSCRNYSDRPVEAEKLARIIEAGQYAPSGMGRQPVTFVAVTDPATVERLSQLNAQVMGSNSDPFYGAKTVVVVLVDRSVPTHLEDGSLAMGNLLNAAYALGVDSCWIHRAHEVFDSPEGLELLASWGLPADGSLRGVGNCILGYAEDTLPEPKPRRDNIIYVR

Flavodoxin = biological target: T4, Flavodoxin (Collinsella aerofaciens, UniProt A4ED08); test: as §2; format: ADME; design: dose 2 uM; details: 2 µM
T4 sequence (A4ED08 whole entry): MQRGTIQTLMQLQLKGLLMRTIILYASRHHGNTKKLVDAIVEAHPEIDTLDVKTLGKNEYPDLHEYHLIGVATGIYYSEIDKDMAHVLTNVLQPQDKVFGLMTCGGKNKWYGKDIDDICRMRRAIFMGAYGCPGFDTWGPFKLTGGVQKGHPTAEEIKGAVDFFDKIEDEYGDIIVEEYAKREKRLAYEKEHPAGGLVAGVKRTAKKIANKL

GDSL-like protein [2] = biological target: T5, GDSL-like protein (Collinsella aerofaciens, UniProt A4E7D0); test: as §2; format: ADME; design: dose 2 uM; details: 2 µM
T5 sequence (A4E7D0 whole entry): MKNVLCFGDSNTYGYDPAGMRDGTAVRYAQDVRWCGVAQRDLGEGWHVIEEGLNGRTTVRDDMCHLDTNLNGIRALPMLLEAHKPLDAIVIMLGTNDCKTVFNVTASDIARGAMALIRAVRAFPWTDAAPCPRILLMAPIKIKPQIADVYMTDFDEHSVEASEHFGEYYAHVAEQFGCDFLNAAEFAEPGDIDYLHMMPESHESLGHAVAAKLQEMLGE

GDSL-like protein [3] = biological target: T6, GDSL-like protein (Collinsella aerofaciens, UniProt A4E8S4); test: as §2; format: ADME; design: dose 2 uM; details: 2 µM
T6 sequence (A4E8S4 whole entry): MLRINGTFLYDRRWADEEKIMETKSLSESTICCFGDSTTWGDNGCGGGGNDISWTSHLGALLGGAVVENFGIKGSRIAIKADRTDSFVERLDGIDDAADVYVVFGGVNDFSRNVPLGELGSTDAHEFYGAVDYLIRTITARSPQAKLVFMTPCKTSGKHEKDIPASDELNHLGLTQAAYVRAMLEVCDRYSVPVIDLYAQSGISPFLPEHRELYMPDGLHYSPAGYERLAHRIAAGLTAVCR

[4] = biological target: T7, Pyridine nucleotide-disulfide oxidoreductase (Collinsella aerofaciens, UniProt A4EBM5); test: as §2; format: ADME; design: dose 2 uM; details: 2 µM
T7 sequence (A4EBM5 whole entry): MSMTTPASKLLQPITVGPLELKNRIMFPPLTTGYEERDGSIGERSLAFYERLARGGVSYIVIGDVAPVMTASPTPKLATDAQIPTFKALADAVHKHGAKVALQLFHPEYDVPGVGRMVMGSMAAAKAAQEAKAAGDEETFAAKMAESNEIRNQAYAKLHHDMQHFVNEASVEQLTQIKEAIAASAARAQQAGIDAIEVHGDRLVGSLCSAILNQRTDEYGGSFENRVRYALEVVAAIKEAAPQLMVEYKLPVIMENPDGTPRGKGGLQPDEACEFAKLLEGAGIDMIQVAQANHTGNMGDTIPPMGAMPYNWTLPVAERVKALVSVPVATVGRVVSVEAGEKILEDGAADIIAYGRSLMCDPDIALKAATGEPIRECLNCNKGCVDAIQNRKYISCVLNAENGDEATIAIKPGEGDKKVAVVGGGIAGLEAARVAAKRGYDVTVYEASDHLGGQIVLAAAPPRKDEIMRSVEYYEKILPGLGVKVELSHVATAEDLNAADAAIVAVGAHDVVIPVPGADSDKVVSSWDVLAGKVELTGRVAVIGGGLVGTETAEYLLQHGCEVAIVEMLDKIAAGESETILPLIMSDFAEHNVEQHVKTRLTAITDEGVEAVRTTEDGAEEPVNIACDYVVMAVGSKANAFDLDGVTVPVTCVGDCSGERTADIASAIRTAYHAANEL

[5] = clostridioides difficile, 12 h, 2 µM
Description: The drug is tested on Clostridium difficile strain: 120 for biotransformation. The drug concentrations were measured before and after a 12-h incubation by liquid-chromatography-coupled mass spectrometry (LC–MS)

Measured: Bacterial Biotransformation

C[C@@H]1CC[C@H]2[C@@H](C)C(=O)O[C@@H]3O[C@@]4(C)CC[C@@H]1[C@]32OO4 [ARTEMISININ]
Compound metabolized: [5]
Compound NOT metabolized: all other assays above
